The text below walks through data of ChEMBL document CHEMBL2375215, “Phenylpropiophenone derivatives as potential anticancer agents: synthesis, biological evaluation and quantitative structure-activity relationship study” (Eur J Med Chem, 2013).

Assay [1] in a line: Selectivity index, ratio of IC50 for human PBMC to IC50 for human Fem-X cells.
Assay [2] concerns PC-3. The assay can be described thus: Selectivity index, ratio of IC50 for human PBMC to IC50 for human PC3 cells.
Assay [3] concerns K562. Description: Cytotoxicity against human K562 cells assessed as decrease in cell survival after 72 hrs by MTT assay. The format is functional, cell-based. The following applies: for IC50: K562, 72 h.
The subject of assay [4] is PBMC. Description: Cytotoxicity against human PBMC assessed as decrease in cell survival after 72 hrs by MTT assay. The format is cell-based.
The subject of assay [5] is HeLa. The assay can be described thus: Selectivity index, ratio of IC50 for human PBMC to IC50 for human HeLa cells.
For a further assay, the system named is LS174. Description: (§1) Cytotoxicity against human LS174 cells assessed as decrease in cell survival after 72 hrs by MTT assay. The format is functional, cell-based.
Assay [6] is described as follows: as §1. The format is functional, cell-based. The following applies: LS174, 72 h.
Assay [7] deals with MCF7. The assay can be described thus: Cytotoxicity against human MCF7 cells assessed as decrease in cell survival after 72 hrs by MTT assay. The format is functional, cell-based. The following applies: for IC50: MCF7, 72 h. On the technique in general: Tetrazolium dyes change colour on reduction, which living cells bring about.
The test system of assay [8] is PBMC. The assay can be described thus: Cytotoxicity against PHA-stimulated human PBMC assessed as decrease in cell survival after 72 hrs by MTT assay. The format is cell-based.
Assay [9] relates to MCF7. Description: Selectivity index, ratio of IC50 for human PBMC to IC50 for human MCF7 cells.
Assay [10] has as its system PC-3. Description: Cytotoxicity against human PC3 cells assessed as decrease in cell survival after 72 hrs by MTT assay. The conditions noted are these: for IC50: PC-3, 72 h. The format is functional, cell-based.
Assay [11] deals with HeLa. The assay can be described thus: Cytotoxicity against human HeLa cells assessed as decrease in cell survival after 72 hrs by MTT assay. The format is functional, cell-based.
The subject of the next assay is Fem-X. The assay can be described thus: (§2) Cytotoxicity against human Fem-X cells assessed as decrease in cell survival after 72 hrs by MTT assay. The format is functional, cell-based.
Assay [12] is described as follows: as §2. The format is functional, cell-based.
Assay [13] is described as follows: Selectivity index, ratio of IC50 for PHA-stimulated human PBMC to IC50 for human Fem-X cells. The format is functional.
Assay [14] relates to MCF7. The assay can be described thus: Selectivity index, ratio of IC50 for PHA-stimulated human PBMC to IC50 for human MCF7 cells.
In assay [15] the test system is HeLa. The assay can be described thus: Selectivity index, ratio of IC50 for PHA-stimulated human PBMC to IC50 for human HeLa cells.
The subject of assay [16] is PC-3. The assay can be described thus: Selectivity index, ratio of IC50 for PHA-stimulated human PBMC to IC50 for human PC3 cells.
Assay [17] in a line: Selectivity index, ratio of IC50 for human PBMC to IC50 for human LS174 cells.
Assay [18] in a line: Selectivity index, ratio of IC50 for PHA-stimulated human PBMC to IC50 for human LS174 cells.
Assay [19] deals with K562. Description: Selectivity index, ratio of IC50 for human PBMC to IC50 for human K562 cells.
For assay [20], the system named is K562. Description: Selectivity index, ratio of IC50 for PHA-stimulated human PBMC to IC50 for human K562 cells.

Consider `CCCNCC(O)COc1ccccc1C(=O)CCc1ccccc1C.Cl` (racemic), for which the “Ratio IC50” value in assay [1] was determined as 7.71; in the assay on PC-3 [2], 2.91; in the assay on HeLa [5], 5.89; with MCF7 [9], 2.24; in assay [13], 7.32; with MCF7 [14] it was 2.13. For the same compound, the “Ratio IC50” value came to 5.6 with HeLa [15]; 2.77 in the assay on PC-3 [16]; 2.58 in assay [17]; 2.45 in assay [18]; 6.47 in the assay with K562 [19]; 6.15 in the assay on K562 [20]. The Activity result with K562 [3], with LS174, in the assay on MCF7 [7], with PC-3 [10], with HeLa [11] and in the assay on Fem-X was “Dose-dependent effect” throughout. For the same compound, the IC50 in the assay on K562 [3] (read-out: IC50) is 8.1 µM; with K562 [3] (read-out: pIC50 (converted)), 8.1 µM; in the assay with PBMC [4], 52.4 µM; in assay [6] (read-out: IC50), 20.3 µM; in assay [6] (read-out: pIC50 (converted)) it was 20.3 µM; in the assay with MCF7 [7] (read-out: IC50) it was 23.4 µM. Also, the IC50 in the assay on MCF7 [7] (read-out: pIC50 (converted)) is 23.4 µM; in the assay with PBMC [8], 49.8 µM; with PC-3 [10] (read-out: IC50), 18 µM; in the assay with PC-3 [10] (read-out: pIC50 (converted)) it was 18 µM; with HeLa [11] (read-out: IC50), 8.9 µM; in the assay with HeLa [11] (read-out: pIC50 (converted)), 8.9 µM. Moreover, the IC50 in assay [12] (read-out: IC50) and in assay [12] (read-out: pIC50 (converted)) was 6.8 µM each time.
As for `O=C(/C=C/c1ccccc1F)c1ccccc1O`, the “Ratio IC50” value in assay [1] is given as 2.02; in the assay on PC-3 [2], 0.81; with HeLa [5], 1.98; in the assay with MCF7 [9], 1.22; in assay [13], 1.88; with MCF7 [14] it was 1.14. In addition, the “Ratio IC50” value is reported as 1.84 with HeLa [15]; 0.76 in the assay on PC-3 [16]; 1.01 in assay [17]; 0.94 in assay [18]; 3.67 in the assay with K562 [19]; 3.41 in the assay with K562 [20]. For the same compound, the Activity result with K562 [3], with LS174, with MCF7 [7], in the assay on PC-3 [10], in the assay with HeLa [11] and in the assay with Fem-X was “Dose-dependent effect” throughout. Besides, the IC50 was 4.8 µM with K562 [3] (read-out: IC50); 4.8 µM in the assay on K562 [3] (read-out: pIC50 (converted)); 17.6 µM in the assay on PBMC [4]; 17.4 µM in [6] (read-out: IC50); 17.4 µM in assay [6] (read-out: pIC50 (converted)); 14.4 µM with MCF7 [7] (read-out: IC50). Further, the IC50 in the assay with MCF7 [7] (read-out: pIC50 (converted)) is 14.4 µM; with PBMC [8], 16.4 µM; with PC-3 [10] (read-out: IC50), 21.6 µM; in the assay with PC-3 [10] (read-out: pIC50 (converted)), 21.6 µM; with HeLa [11] (read-out: IC50), 8.9 µM; with HeLa [11] (read-out: pIC50 (converted)) it was 8.9 µM. In addition, the IC50 in [12] (read-out: IC50) and in [12] (read-out: pIC50 (converted)) was 8.7 µM throughout.
As for `CCCNCC(O)COc1ccccc1C(=O)CCc1ccccc1C(F)(F)F.Cl` (racemic), the “Ratio IC50” value is listed as 2.76 in assay [1]; 1.91 with PC-3 [2]; 6.55 with HeLa [5]; 4.58 in the assay with MCF7 [9]; 2.2 in assay [13]; 3.66 in the assay with MCF7 [14]. Moreover, the “Ratio IC50” value in the assay on HeLa [15] came out at 5.24; in the assay on PC-3 [16], 1.52; in [17], 2.39; in [18], 1.91; with K562 [19] it was 5.05; in the assay on K562 [20] it was 4.03. The Activity result in the assay with K562 [3], in the assay on LS174, with MCF7 [7], with PC-3 [10], in the assay with HeLa [11] and in the assay with Fem-X was “Dose-dependent effect” throughout. The IC50 in the assay with K562 [3] (read-out: IC50) is 8.8 µM; with K562 [3] (read-out: pIC50 (converted)), 8.8 µM; with PBMC [4], 44.4 µM; in assay [6] (read-out: IC50), 18.6 µM; in assay [6] (read-out: pIC50 (converted)) it was 18.6 µM; in the assay on MCF7 [7] (read-out: IC50), 9.7 µM. Further, the IC50 was 9.7 µM in the assay with MCF7 [7] (read-out: pIC50 (converted)); 35.5 µM in the assay with PBMC [8]; 23.3 µM in the assay on PC-3 [10] (read-out: IC50); 23.3 µM with PC-3 [10] (read-out: pIC50 (converted)); 6.78 µM with HeLa [11] (read-out: IC50); 6.78 µM with HeLa [11] (read-out: pIC50 (converted)). Besides, the IC50 in assay [12] (read-out: IC50) and in [12] (read-out: pIC50 (converted)) was 16.1 µM throughout.
On to `O=C(/C=C/c1ccc(F)cc1)c1ccccc1O`, for which the Activity entry in the assay on K562 [3], in the assay on LS174, in the assay on MCF7 [7], in the assay on PC-3 [10], with HeLa [11] and in the assay on Fem-X was “Dose-dependent effect” throughout. Also, the IC50 in the assay with K562 [3] (read-out: IC50) was 17.9 µM; in the assay on K562 [3] (read-out: pIC50 (converted)), 17.9 µM; in [6] (read-out: IC50), 35.3 µM; in [6] (read-out: pIC50 (converted)), 35.3 µM; in the assay with MCF7 [7] (read-out: IC50), 26 µM; in the assay on MCF7 [7] (read-out: pIC50 (converted)), 26 µM. The IC50 in the assay with PC-3 [10] (read-out: IC50) is 30.4 µM; with PC-3 [10] (read-out: pIC50 (converted)), 30.4 µM; with HeLa [11] (read-out: IC50) it was 22.6 µM; with HeLa [11] (read-out: pIC50 (converted)), 22.6 µM; in [12] (read-out: IC50), 21.8 µM; in assay [12] (read-out: pIC50 (converted)) it was 21.8 µM.
As for `Cc1ccc(/C=C/C(=O)c2ccccc2O)cc1`, the Activity entry in the assay on K562 [3], with LS174, in the assay on MCF7 [7], in the assay on PC-3 [10], in the assay with HeLa [11] and with Fem-X was “Dose-dependent effect” each time. Further, the IC50 was 18.9 µM in the assay with K562 [3] (read-out: IC50); 18.9 µM in the assay with K562 [3] (read-out: pIC50 (converted)); 41.2 µM in [6] (read-out: IC50); 41.2 µM in [6] (read-out: pIC50 (converted)); 33.9 µM in the assay on MCF7 [7] (read-out: IC50); 33.9 µM in the assay on MCF7 [7] (read-out: pIC50 (converted)). The IC50 is 27.6 µM in the assay on PC-3 [10] (read-out: IC50); 27.6 µM in the assay on PC-3 [10] (read-out: pIC50 (converted)); 20.6 µM with HeLa [11] (read-out: IC50); 20.6 µM with HeLa [11] (read-out: pIC50 (converted)); 21.2 µM in assay [12] (read-out: IC50); 21.2 µM in [12] (read-out: pIC50 (converted)).
With `O=C(/C=C/c1ccccc1Cl)c1ccccc1O`, the Activity entry in the assay on K562 [3], in the assay on LS174, with MCF7 [7], in the assay on PC-3 [10], in the assay with HeLa [11] and in the assay on Fem-X was “Dose-dependent effect” in each case. In addition, the IC50 with K562 [3] (read-out: IC50) was 9.8 µM; with K562 [3] (read-out: pIC50 (converted)) it was 9.8 µM; in assay [6] (read-out: IC50) it was 32.2 µM; in assay [6] (read-out: pIC50 (converted)), 32.2 µM; in the assay on MCF7 [7] (read-out: IC50), 29.8 µM; with MCF7 [7] (read-out: pIC50 (converted)), 29.8 µM. Also, the IC50 in the assay on PC-3 [10] (read-out: IC50) is 20.1 µM; in the assay with PC-3 [10] (read-out: pIC50 (converted)), 20.1 µM; in the assay on HeLa [11] (read-out: IC50), 11.2 µM; in the assay on HeLa [11] (read-out: pIC50 (converted)) it was 11.2 µM; in assay [12] (read-out: IC50) it was 10.4 µM; in [12] (read-out: pIC50 (converted)), 10.4 µM.
Turning to `Cc1ccccc1/C=C/C(=O)c1ccccc1O`, the Activity entry in the assay with K562 [3], in the assay with LS174, in the assay with MCF7 [7], with PC-3 [10], with HeLa [11] and in the assay on Fem-X was “Dose-dependent effect” in each case. For the same compound, the IC50 was 18.5 µM in the assay on K562 [3] (read-out: IC50); 18.5 µM in the assay with K562 [3] (read-out: pIC50 (converted)); 48.8 µM in assay [6] (read-out: IC50); 48.8 µM in assay [6] (read-out: pIC50 (converted)); 37.7 µM in the assay with MCF7 [7] (read-out: IC50); 37.7 µM with MCF7 [7] (read-out: pIC50 (converted)). Further, the IC50 with PC-3 [10] (read-out: IC50) was 19.2 µM; in the assay on PC-3 [10] (read-out: pIC50 (converted)) it was 19.2 µM; with HeLa [11] (read-out: IC50), 14.7 µM; with HeLa [11] (read-out: pIC50 (converted)), 14.7 µM; in assay [12] (read-out: IC50), 22.4 µM; in assay [12] (read-out: pIC50 (converted)), 22.4 µM.
